# Values quoted from earlier work, collected in paper PMC6422671 (British Journal of Clinical Pharmacology, 2019).
# How the values were obtained:
# [1] = system: urate anion exchanger 1 (URAT1; SLC22A12); design: method as in E Michaëlsson et al., manuscript in preparation; conditions: in vitro; ref E Michaëlsson et al., manuscript in preparation; cited from earlier work
# CYP3A4 = system: CYP3A4; design: method as in unpublished data; conditions: in vitro; ref unpublished data; cited from earlier work
# [2] = design: method as in E Michaëlsson et al., manuscript in preparation; conditions: ref E Michaëlsson et al., manuscript in preparation; cited from earlier work
# myeloperoxidase = system: myeloperoxidase; design: method as in E Michaëlsson et al., manuscript in preparation; conditions: in vitro, unpublished; ref E Michaëlsson et al., manuscript in preparation; cited from earlier work
structure (smiles),measurement,setting,value
C[C@@H](N)c1cc(Cl)ccc1Cn1c(=S)[nH]c(=O)c2[nH]ccc21 [AZD4831],inhibition of URAT1 uric acid transport,[1],does not inhibit
same,involvement of CYP3A4 in metabolism,CYP3A4,involved in the metabolism
same,human plasma protein binding,[2],65%
same,inhibition of oxidation of xanthine and uric acid by myeloperoxidase,myeloperoxidase,inhibits
